This assay addresses T1, GT06 (UGT89B1 (AT1G73880)) (Arabidopsis thaliana, UniProt Q9C9B0).
T1 sequence (Q9C9B0 1-473): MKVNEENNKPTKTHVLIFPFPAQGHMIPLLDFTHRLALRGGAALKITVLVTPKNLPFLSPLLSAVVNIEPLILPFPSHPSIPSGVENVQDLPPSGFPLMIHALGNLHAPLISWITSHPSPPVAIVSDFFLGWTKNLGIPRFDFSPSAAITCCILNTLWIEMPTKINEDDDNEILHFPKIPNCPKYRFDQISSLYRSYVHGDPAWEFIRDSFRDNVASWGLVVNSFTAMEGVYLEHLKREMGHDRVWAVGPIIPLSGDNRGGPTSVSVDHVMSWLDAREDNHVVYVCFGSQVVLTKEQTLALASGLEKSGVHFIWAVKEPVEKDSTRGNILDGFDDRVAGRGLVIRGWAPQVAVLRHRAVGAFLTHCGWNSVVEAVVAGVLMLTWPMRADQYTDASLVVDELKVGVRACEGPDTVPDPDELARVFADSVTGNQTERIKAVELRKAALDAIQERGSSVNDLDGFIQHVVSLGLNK
The assay is described as follows: qPCR DLEnCA, cell-free transcription/translation-derived GT06. Format: biochemical. To be noted: GT06 DNA 5 nM, chemical 1 mM, UDP-Glc 2 μM, probe 0.2 nM; low recovery = substrate glucosylated. How it is done:
FIG. 4A-FIG. 4D. qPCR DLEnCA and substrate specificity studies. A. Chemicals used as substrates in subsequent assays: (i) known substrates of OleD; (ii) flavone library; (iii) known substrates of GT05 (UGT72B1 (Q9M156)) and GT06 (UGT89B1 (AT1 G73880)). B. DNA encoding OleD (5 nM) was incubated in a cell-free transcription/translation system for 3 hours at 37° C., followed by the addition of chemical (1 mM) and UDP-Glc (2 μM). After a subsequent incubation of 3 hours, TbGT and probe (0.2 nM) were added. After probe purification and MfeI digestion, probe integrity was identified using qPCR. Percent recovery of probe is reported (n=8; error bars=standard error). C. DNA encoding OleD (5 nM) was incubated for 3 hours at 37° C. in a cell-free transcription/translation system, followed by the addition of flavone (1 mM) and UDP-Glc (2 μM). After a subsequent incubation of 3 hours, TbGT and probe (0.2 nM) were added. After probe purification and MfeI addition, probe integrity was identified using qPCR. Percent recovery of probe is reported (n=8; error bars=standard error). D. DNA encoding OleD, GT05, or GT06 (5 nM) were incubated for 3 hours at 37° C. in a cell-free transcription/translation system, followed by the addition of chemical (1 mM) and UDP-Glc (2 μM). After a subsequent incubation of 3 hours, TbGT and probe (0.2 nM) were added. […]
Background: In qPCR the cycle at which signal appears reflects the starting amount.

`O=C(O)c1ccc(O)cc1` [XI, 4-hydroxybenzoic acid] yielded a recovery of probe of 25%.

Values taken from patent US10829798B2, “DNA-linked enzyme-coupled assays” (THE REGENTS OF THE UNIVERSITY OF CALIFORNIA, priority 2014, dated 2020).
